The source of these data is patent publication US20010031768A1, “Triazole antifungal agent” (SANKYO COMPANY LIMITED, priority 1995, published 2001).

Like-named read-outs stand apart in the source and are kept apart here.

The subject of this assay is Candida albicans. Put plainly: Survival of mice infected with Candida albicans after oral administration. Particulars: for responders at 20 mg/kg: po. The format is in vivo. The protocol:
To mice (one group consisting of 10 mice), which were innoculated with 4 to 9×10^6 Candida albicans, were administered orally 20 mg/kg of preparations after 1, 4 and 24 hours, and thereafter the survival rate until 21 days after infection was examined.

[1] abbreviates: 336 h, mice inoculated with 4 to 9×10^6 Candida albicans, 20 mg/kg orally after 1, 4 and 24 hours, 14 days after infection, read-out: Survival rate % 14 days.
The mark [2] stands for this setting: 504 h, mice inoculated with 4 to 9×10^6 Candida albicans, 20 mg/kg orally after 1, 4 and 24 hours, 21 days after infection, read-out: Survival rate % 21 days.

For the molecule `C[C@@H](S[C@H]1CO[C@H](/C=C/c2ccc(C(F)(F)F)cc2)OC1)[C@](O)(Cn1cncn1)c1ccc(F)cc1F` [Example 2, (2R,3R)-2-(2,4-Difluorophenyl)-3-[[trans-2-[(E)-2-[4-(trifluoromethyl)phenyl]vinyl]-1,3-dioxan-5-yl]thio]-1-(1 H-1,2,4-triazol-1-yl)-2-butanol], the responders at 20 mg/kg runs as follows: under setting [1], 100%; under setting [2], 100%.
`C[C@@H](SC1CCN(C(=O)/C=C/c2ccc(OC(F)(F)F)cc2)CC1)[C@](O)(Cn1cncn1)c1ccc(F)cc1F` [Example 21, (2R,3R)-2-(2,4-Difluorophenyl) -3-[[1-[(E)-4-(trifluoromethoxy)cinaamoyl]piperidin-4-yl]thio]-1-(1 H-1,2,4-triazol-1-yl)-2-butanol]: the “Survival rate % 14 days” value (mice inoculated with 4 to 9×10^6 Candida albicans, 20 mg/kg orally after 1, 4 and 24 hours, 14 days after infection) is given as 100%. The “Survival rate % 21 days” value (mice inoculated with 4 to 9×10^6 Candida albicans, 20 mg/kg orally after 1, 4 and 24 hours, 21 days after infection) came to 60%.
Consider `CC(C)(SC1COC(/C=C/c2ccc(C(F)(F)F)cc2)OC1)C(O)(Cn1cncn1)c1ccc(C(F)(F)F)cc1` (racemic) [Example 30, (RS)-3-Methyl-1-(1 H-1,2,4-triazol-1-yl)-2-[4-(trifluoromethyl)phenyl]-3-[[trans-2-[(E)-2-[4-(trifluoromethyl)phenyl]vinyl]-1,3-dioxan-5-yl]thio]-2-butanol], for which the responders at 20 mg/kg by setting is: under setting [1], 100%; under setting [2], 100%.
On to `CC(SC1COC(/C=C/C=C/C=C/c2ccc(C(F)(F)F)cc2)OC1)C(O)(Cn1cncn1)c1ccc(F)cc1F` [Example 37, (2R,3R)-2-(2,4-Difluorophenyl)-1-(1 H-1,2,4-triazol-1-yl)-3-[[trans-2-[(1E,3E,5E)-6-[4-(trifluoromethyl)phenyl]-1,3,5-hexatrien-1-yl]-1,3-dioxam-5-yl]thio]-2-butanol], for which the responders at 20 mg/kg came out at 100% under setting [1] and 100% under setting [2].
`C[C@@H](S[C@H]1CO[C@H](/C=C/C=C/c2ccc(SC(F)(F)F)cc2)OC1)[C@](O)(Cn1cncn1)c1ccc(F)cc1F` [Example 32, (2R,3R)-2-(2,4-Difluorophenyl)-1-(1 H-1,2,4-triazol-1-yl)-3-[[trans-2-[(1E, 3E) -4-[4-(trifluoromethylthio)phenyl]-1,3-butadien-1-yl]-1,3-dioxan-5-yl]thio]-2-butanol]: the responders at 20 mg/kg by setting is: under setting [1], 100%; under setting [2], 100%.
Consider `C[C@@H](S[C@H]1CO[C@H](/C=C/C=C/c2ccc(C(F)(F)F)cc2)OC1)[C@](O)(Cn1cncn1)c1ccc(F)cc1F` [Example 15, (2R,3R)-2-(2,4-Difluorophenyl)-1-(1 H-1,2,4-triazol-1-yl) -3-[[trans-2-[(1 E,3 E)-4-[4-(trifluoromethyl)phenyl]-1,3-butadien-1-yl]-1,3-dioxan-5-yl]thio]-2-butanol], for which the responders at 20 mg/kg is, setting by setting: under setting [1], 100%; under setting [2], 100%.
`C[C@@H](S[C@H]1CO[C@H](/C=C/C=C/c2ccc([S+]([O-])C(F)(F)F)cc2)OC1)[C@](O)(Cn1cncn1)c1ccc(F)cc1F` (stereo partly drawn) [Example 35, (2R,3R)-2-(2,4-Difluorophenyl)-1-(1 H-1,2,4-triazol-1-yl)-3-[[trans-2-[(1E,3E)-4-[4-(trifluoromethylsulfinyl)phenyl]-1,3-butadien-1-yl]-1,3-dioxan-5-yl]thio]-2-butanol]: the responders at 20 mg/kg by setting is: under setting [1], 100%; under setting [2], 100%.
In the case of `C[C@@H](S[C@H]1CO[C@H](/C=C/C=C/c2ccc(OCC(F)(F)C(F)F)cc2)OC1)[C@](O)(Cn1cncn1)c1ccc(F)cc1F` [Example 16, (2R,3R)-2-(2,4-Difluorophenyl)-3-[[trans-2-[(1 E,3 E)-4-[4-(2,2,3,3-tetrafluoropropoxy)phenyl]-1,3-butadien-1-yl]-1,3-dioxan-5-yl]thio]-1-(1 H-1,2,4-triazol-1-yl)-2-butanol], the responders at 20 mg/kg reads like this: under setting [1], 100%; under setting [2], 100%.
For `OC(Cn1cncn1)(Cn1cncn1)c1ccc(F)cc1F` [Fluconazol, reference compound], the responders at 20 mg/kg stood at 70% (Candida albicans, 336 h, read-out: Survival rate % 14 days) and 60% (Candida albicans, 504 h, read-out: Survival rate % 21 days).
Consider `C[C@@H](S[C@H]1CO[C@H](/C=C/c2ccc(OC(F)(F)F)cc2)OC1)[C@](O)(Cn1cncn1)c1ccc(F)cc1F` [Example 11, (2R,3R)-2-(2,4-Difluorophenyl)-1-(1 H-1,2,4-triazol-1-yl)-3-[[trans-2-[(E)-2-[4-(trifluoromethoxy)phenyl]vinyl]-1,3-dioxan-5-yl]thio]-2-butanol], for which the responders at 20 mg/kg is, setting by setting: under setting [1], 100%; under setting [2], 100%.
As to `C[C@@H](S[C@H]1CO[C@H](/C=C/C=C(/c2ccc(Cl)cc2)C(F)(F)F)OC1)[C@](O)(Cn1cncn1)c1ccc(F)cc1F` [Example 18, (2R,3R) -2-(2,4-Difluorophenyl)-3-[[trans-2-[(1 E,3 Z)-4-(4-chlorophenyl)-5,5,5-trifluoro-1,3-pentadien-1-yl]-1,3-dioxan-5-yl]thio]-1-(1 H-1,2,4-triazol-1-yl)-2-butanol], the responders at 20 mg/kg by setting is: under setting [1], 100%; under setting [2], 100%.
